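Dose response: 5 concentrations. Exposure: 48 h. Format: 96-well plates. Endpoint: linear interpolation; highest concentration if not reached. GI50 is the concentration that inhibits growth by half. TGI: total growth inhibition.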
Tests used:
Assay in all cases: DTP human tumour cell line panel, 48 h
SF-539 CNS = tested on: SF-539 CNS
SR leukemia = tested on: SR leukemia
RPMI-8226 leukemia = tested on: RPMI-8226 leukemia
HOP-62 NSCLC = tested on: HOP-62 NSCLC
EKVX NSCLC = tested on: EKVX NSCLC
SK-OV-3 ovarian = tested on: SK-OV-3 ovarian
NCI-H226 lung = tested on: NCI-H226 lung
U251 CNS = tested on: U251 CNS
OVCAR-4 ovarian = tested on: OVCAR-4 ovarian
HCT-15 colon = tested on: HCT-15 colon

SMILES	GI50 (SF-539 CNS) [µM]	TGI (SF-539 CNS) [µM]	GI50 (SR leukemia) [µM]	TGI (SR leukemia) [µM]	GI50 (RPMI-8226 leukemia) [µM]	TGI (RPMI-8226 leukemia) [µM]	GI50 (HOP-62 NSCLC) [µM]	TGI (HOP-62 NSCLC) [µM]	GI50 (EKVX NSCLC) [µM]	TGI (EKVX NSCLC) [µM]	GI50 (SK-OV-3 ovarian) [µM]	TGI (SK-OV-3 ovarian) [µM]	GI50 (NCI-H226 lung) [µM]	TGI (NCI-H226 lung) [µM]	GI50 (U251 CNS) [µM]	TGI (U251 CNS) [µM]	GI50 (OVCAR-4 ovarian) [µM]	TGI (OVCAR-4 ovarian) [µM]	GI50 (HCT-15 colon) [µM]	TGI (HCT-15 colon) [µM]
C/C(=N/O)c1ccc2c(c1)/C(=N/O)c1ccccc1-2	21.6	50	12.5	31.8	22.5	48.8	25	56.4	21.2	66.1	35.7	> 100	22.2	49.7	21.2	46	15.1	45.4	17.1	33.7
CCN(CC)CC(=O)NC1c2ccccc2Oc2c(C)cccc21 (stereo unspecified)	–	> 100	–	> 100	–	> 100	–	> 100	–	> 100	–	> 100	–	> 100	–	–	–	> 100	–	> 100
O=C(CO[N+](=O)[O-])OC/C=C/c1ccccc1	–	> 100	–	> 100	–	> 100	–	> 100	–	> 100	–	> 100	–	> 100	–	> 100	–	–	–	> 100
CN(C)CCn1cnc2ncccc2c1=O	–	> 100	–	> 100	–	–	–	> 100	–	> 100	–	> 100	–	> 100	–	> 100	–	> 100	–	–
CC1CCC(=O)C(C(O)CC2CC(=O)N(c3ccccc3)C(=O)C2)C1 (stereo unspecified)	–	> 100	–	> 100	–	> 100	–	> 100	–	> 100	–	> 100	–	> 100	–	> 100	–	> 100	–	–
COc1ccc(C(=O)O[C@H]2[C@H](O[C@H]3[C@@H](O)COC(O[C@H]4C[C@H]5[C@@H]6CC=C7C[C@@H](O)CC[C@]7(C)[C@H]6CC[C@]5(C)[C@H]4[C@H](C)C(=O)CCC(C)C)[C@@H]3OC(C)=O)OC[C@@H](O)[C@@H]2O)c(C)c1 (stereo partly specified)	< 0.01	< 0.01	< 0.01	> 100	–	–	< 0.01	7.51	1.26	26.9	0.0246	9.5	0.0423	30.6	< 0.01	18.7	0.717	> 100	0.0332	2.05
Cc1ccc(-c2nc(N3CCNCC3)c3oc(-c4ccccc4)nc3n2)cc1	1.78	3.28	1.26	3.24	2.16	4.77	1.96	4.48	3.94	> 100	15.7	29.5	–	–	1.79	3.24	1.89	4.06	1.69	3.2
C/C(=N\n1c(O)c(C#N)cc(C#N)c1=O)c1ccncc1	–	–	> 100	> 100	> 100	> 100	> 100	> 100	> 100	> 100	> 100	> 100	> 100	> 100	> 100	> 100	–	–	> 100	> 100
COc1ccc(-c2ccccc2)c2[nH]c3c(c12)CCNC3=O	–	> 100	–	> 100	–	> 100	–	> 100	–	> 100	–	–	–	> 100	–	> 100	–	> 100	–	> 100

From PubChem BioAssay (NCI)
